US10336762B2 (priority 2017, dated 2019)
Read-outs that look alike come from different tables or passages of the source.

Tests used:
[1] = molecular target: IRAK4 enzyme (Homo sapiens (Human), UniProt Q9NWZ3); assay: biochemical; type: biochemical; details: IRAK4 enzyme, 500 μM ATP
[2] = tested on: TNFα; assay: cells; type: cell-based, human; details: Homo sapiens, Monocyte, LPS-stimulated human monocytes, read-out: EC50 TNF

Chain of IRAK4 enzyme (Q9NWZ3 whole entry): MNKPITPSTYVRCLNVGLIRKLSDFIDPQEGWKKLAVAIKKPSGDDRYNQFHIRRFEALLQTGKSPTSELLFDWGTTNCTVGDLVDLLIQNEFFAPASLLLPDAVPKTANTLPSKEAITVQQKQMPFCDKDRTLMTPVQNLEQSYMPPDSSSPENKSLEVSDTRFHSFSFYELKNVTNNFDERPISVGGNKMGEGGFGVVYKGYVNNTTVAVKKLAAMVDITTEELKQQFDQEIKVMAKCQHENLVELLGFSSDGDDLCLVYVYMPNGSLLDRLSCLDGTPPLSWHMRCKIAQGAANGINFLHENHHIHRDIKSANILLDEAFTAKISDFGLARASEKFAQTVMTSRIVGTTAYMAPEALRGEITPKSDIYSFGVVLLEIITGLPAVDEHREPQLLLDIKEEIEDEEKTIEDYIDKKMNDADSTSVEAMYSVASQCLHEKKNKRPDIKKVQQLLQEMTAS

| SMILES | IC50 ([1]; TR-FRET (HTRF)) [nM] | EC50 ([2]; TNFα content) [nM] | IC50 ([1]; TR-FRET) [nM] | EC50 ([2]; TNFα by TR-FRET) [nM] |
| --- | --- | --- | --- | --- |
| CC(=O)N1CC(Nc2cc(-c3ccc4cc(C#N)cnn34)ncc2C(=O)NC[C@@H](F)C(C)(C)O)C1 [Example 449, (R)-4-((1-acetylazetidin-3-yl)amino)-6-(3-cyano-pyrrolo[1,2-b]pyridazin-7-yl)-N-(2-fluoro-3-hydroxy-3-methylbutyl)nicotinamide] | 3 | 361 |  |  |
| COCCn1cc(Nc2cc(-c3ccc4cc(C#N)cnn34)ncc2C(=O)NC[C@@H](F)C(C)(C)O)cn1 [Example 119, (R)-6-(3-cyanopyrrolo[1,2-b]pyridazin-7-yl)-N-(2-fluoro-3-hydroxy-3-methylbutyl)-4-((1-(2-methoxyethyl)-1H-pyrazol-4-yl)amino) nicotinamide] |  | 32 | < 1 |  |
| CC(C)Nc1cc(-c2ccc3cc(C#N)cnn23)ncc1C(=O)NCCC1(O)CCOCC1 [Example 95, 6-(3-cyanopyrrolo[1,2-b]pyridazin-7-yl)-N-(2-(4-hydroxytetrahydro-2H-pyran-4-yl)ethyl)-4-(isopropylamino) nicotinamide] |  | 42 | 1 |  |
| COC(=O)NCCC(C)(C)Nc1cc(-c2ccc3cc(C#N)cnn23)ncc1C(=O)NC[C@@H](F)C(C)(C)O [Example 721, (R)-methyl (3-((2-(3-cyano-pyrrolo[1,2-b]pyridazin-7-yl)-5-((2-fluoro-3-hydroxy-3-methylbutyl)carbamoyl)pyridin-4-yl)amino)-3-methylbutyl)carbamate] | 1 | 87 |  |  |
| CC(=O)Nc1ccc(Nc2cc(-c3ccc4cc(C#N)cnn34)ncc2C(=O)NC[C@@H](F)C(C)(C)O)cn1 [Example 662, (R)-4-((6-acetamido-pyridin-3-yl)amino)-6-(3-cyanopyrrolo[1,2-b]pyridazin-7-yl)-N-(2-fluoro-3-hydroxy-3-methylbutyl)nicotinamide] | < 1 | 12 |  |  |
| CN(C)S(=O)(=O)N[C@H]1CC[C@H](Nc2cc(-c3ccc4cc(C#N)cnn34)ncc2C(=O)NC[C@@H](F)C(C)(C)O)CC1 [Example 285, 6-(3-cyanopyrrolo[1,2-b]pyridazin-7-yl)-4-(((1r,4R)-4-((N,N-dimethylsulfamoyl)amino)cyclohexyl)amino)-N-((R)-2-fluoro-3-hydroxy-3-methylbutyl)nicotinamide] |  | 167 | 2 |  |
| CC(C)(O)[C@H](F)CNC(=O)c1cnc(-c2ccc3cc(C#N)cnn23)cc1NCC1CCC1 [Example 703, (R)-6-(3-cyano-pyrrolo[1,2-b]pyridazin-7-yl)-4-((cyclobutyl-methyl)amino)-N-(2-fluoro-3-hydroxy-3-methylbutyl)nicotinamide] | < 1 | 45 |  |  |
| CN1CCOc2cc(Nc3cc(-c4ccc5cc(C#N)cnn45)ncc3C(=O)NC[C@@H](F)C(C)(C)O)ccc21 [Example 854, (R)-6-(3-cyanopyrrolo[1,2-b]pyridazin-7-yl)-N-(2-fluoro-3-hydroxy-3-methylbutyl)-4-((4-methyl-3,4-dihydro-2H-benzo[b] [1,4]oxazin-7-yl)amino)nicotinamide] |  |  | 1 | 10 |
| CC(C)(O)[C@H](F)CNC(=O)c1cnc(-c2ccc3cc(C#N)cnn23)cc1Nc1cnc(N2CCC2)nc1 [Example 681, (R)-4-((2-(azetidin-1-yl)pyrimidin-5-yl)amino)-6-(3-cyanopyrrolo[1,2-b]pyridazin-7-yl)-N-(2-fluoro-3-hydroxy-3-methylbutyl) nicotinamide] | < 1 | 6 |  |  |
| CC(C)(O)[C@H](F)CNC(=O)c1cnc(-c2ccc3cc(C#N)cnn23)cc1NS(C)(=O)=O [Example 10, (R)-6-(3-cyanopyrrolo[1,2-b]pyridazin-7-yl)-N-(2-fluoro-3-hydroxy-3-methylbutyl)-4-(methylsulfonamido)nicotinamide] |  | > 10000 | 234 |  |
| CC(C)(O)[C@H](F)CNC(=O)c1cnc(-c2ccc3cc(C#N)cnn23)cc1N[C@H]1CC[C@H](n2cncn2)CC1 [Example 779, 4-(((1r,4R)-4-(1H-1,2,4-triazol-1-yl)cyclohexyl)amino)-6-(3-cyano-pyrrolo[1,2-b]pyridazin-7-yl)-N-((R)-2-fluoro-3-hydroxy-3-methylbutyl) nicotinamide] | < 1 | 28 |  |  |
| CC(C)(O)[C@H](F)CNC(=O)c1cnc(-c2ccc3cc(C#N)cnn23)cc1NCc1ccccn1 [Example 171, (R)-6-(3-cyanopyrrolo[1,2-b]pyridazin-7-yl)-N-(2-fluoro-3-hydroxy-3-methylbutyl)-4-((pyridin-2-ylmethyl)amino) nicotinamide] |  | 382 | 6 |  |
| C[C@]1(O)C[C@H](Nc2cc(-c3ccc4cc(C#N)cnn34)ncc2C(=O)NCC#N)C1 [Example 389, N-(cyanomethyl)-6-(3-cyanopyrrolo[1,2-b]pyridazin-7-yl)-4-(((1r,3r)-3-hydroxy-3-methylcyclobutyl)amino) nicotinamide] |  | 137 | 3 |  |
| CC(C)(C)NC(=O)c1cnc(-c2ccc3cc(C#N)cnn23)cc1NC12CCC(O)(CC1)CC2 [Example 357, N-(tert-butyl)-6-(3-cyano-pyrrolo[1,2-b]pyridazin-7-yl)-4-((4-hydroxy-bicyclo[2.2.2]octan-1-yl)amino)nicotinamide] |  | 413 | 9 |  |
| Cn1cc(CNC(=O)c2cnc(-c3ccc4cc(C#N)cnn34)cc2NC23CCC(O)(CC2)CC3)cn1 [Example 926, 6-(3-cyanopyrrolo[1,2-b]pyridazin-7-yl)-4-((4-hydroxybicyclo[2.2.2]octan-1-yl)amino)-N-((1-methyl-1H-pyrazol-4-yl)methyl)nicotinamide] |  |  | 2 | 192 |
| COc1cncc(Nc2cc(-c3ccc4cc(C#N)cnn34)ncc2C(=O)NC[C@@H](F)C(C)(C)O)n1 [Example 842, (R)-6-(3-cyanopyrrolo[1,2-b]pyridazin-7-yl)-N-(2-fluoro-3-hydroxy-3-methylbutyl)-4-((6-methoxypyrazin-2-yl)amino)nicotinamide] |  |  | < 1 | 42 |
| COC12CCC(Nc3cc(-c4ccc5cc(C#N)cnn45)ncc3C(=O)NC[C@@H](F)C(C)(C)O)(CC1)CC2 [Example 414, 6-(3-cyanopyrrolo[1,2-b]pyridazin-7-yl)-N-((R)-2-fluoro-3-hydroxy-3-methylbutyl)-4-((4-methoxybicyclo[2.2.2]octan-1-yl)amino)nicotinamide] | 12 | 178 |  |  |
| CC(C)(O)[C@H](F)CNC(=O)c1cnc(-c2ccc3cc(C#N)cnn23)cc1NC1CC2(CCN2)C1 (stereo partly drawn) [Example 908, 4-(((4S,6r)-1-azaspiro[3.3]heptan-6-yl)amino)-6-(3-cyanopyrrolo[1,2-b]pyridazin-7-yl)-N-((R)-2-fluoro-3-hydroxy-3-methylbutyl)nicotinamide] |  |  | 6 | 611 |
| CNC(=O)c1cnc(-c2ccc3cc(C#N)cnn23)cc1N[C@@H]1CCC[C@@H](C(=O)NC)C1 [Example 464, 6-(3-cyanopyrrolo[1,2-b]pyridazin-7-yl)-N-methyl-4-(((1R,3R)-3-(methylcarbamoyl)cyclohexyl)amino) nicotinamide] | 23 | 1110 |  |  |
| CC(C)(O)[C@H](F)CNC(=O)c1cnc(-c2ccc3cc(C#N)cnn23)cc1N[C@H]1CCC[C@@H](N)C1 [Example 533, 4-(((1S,3R)-3-aminocyclohexyl)amino)-6-(3-cyanopyrrolo[1,2-b]pyridazin-7-yl)-N-((R)-2-fluoro-3-hydroxy-3-methylbutyl)nicotinamide] | < 1 | 70 |  |  |
| Cc1ncc(C2CCC(Nc3cc(-c4ccc5cc(C#N)cnn45)ncc3C(=O)NC[C@@H](F)C(C)(C)O)CC2)o1 (stereo partly drawn) [Example 644, (R)-6-(3-cyanopyrrolo[1,2-b]pyridazin-7-yl)-N-(2-fluoro-3-hydroxy-3-methylbutyl)-4-((4-(2-methyloxazol-5-yl)cyclo-hexyl)amino)nicotinamide] | 1 | 36 |  |  |
| CC(C)(O)[C@H](F)CNC(=O)c1cnc(-c2ccc3cc(C#N)cnn23)cc1NC12CC(C(N)=O)(C1)C2 [Example 373, (R)-4-((3-carbamoylbicyclo[1.1.1]pentan-1-yl)amino)-6-(3-cyanopyrrolo[1,2-b]pyridazin-7-yl)-N-(2-fluoro-3-hydroxy-3-methylbutyl)nicotinamide] |  | 141 | < 1 |  |
| CC(C)(O)[C@H](F)CNC(=O)c1cnc(-c2ccc3cc(C#N)cnn23)cc1Nc1cnc(-c2ccc3cc(C#N)cnn23)nc1 [Example 966, (R)-6-(3-cyanopyrrolo[1,2-b]pyridazin-7-yl)-4-((2-(3-cyanopyrrolo[1,2-b]pyridazin-7-yl)pyrimidin-5-yl)amino)-N-(2-fluoro-3-hydroxy-3-methylbutyl) nicotinamide] |  |  | 2 | > 10000 |
| CC(C)(O)[C@H](F)CNC(=O)c1cnc(-c2ccc3cc(C#N)cnn23)cc1N[C@H]1CC[C@H](NC(=O)C2(F)CC2)CC1 [Example 422, 6-(3-cyanopyrrolo[1,2-b]pyridazin-7-yl)-N-((R)-2-fluoro-3-hydroxy-3-methylbutyl)-4-(((1r,4R)-4-(1-fluorocyclopropane-1-carboxamido)cyclohexyl)amino)nicotinamide] | 2 | 76 |  |  |
| COC(=O)NC1CCN(c2ccc(Nc3cc(-c4ccc5cc(C#N)cnn45)ncc3C(=O)NC[C@@H](F)C(C)(C)O)cn2)CC1 [Example 881, (R)-methyl (1-(5-((2-(3-cyanopyrrolo[1,2-b]pyridazin-7-yl)-5-((2-fluoro-3-hydroxy-3-methylbutyl)carbamoyl)pyridin-4-yl)amino)pyridin-2-yl)piperidin-4-yl)carbamate] |  |  | < 1 | 84 |
| CNC(=O)c1cnc(-c2ccc3cc(C#N)cnn23)cc1NC(C)C [Example 38, 6-(3-cyanopyrrolo[1,2-b]pyridazin-7-yl)-4-(isopropylamino)-N-methylnicotinamide] |  | 91 | 2 |  |
